Reference: article PMC11274128, “Modification and Synergistic Studies of a Novel Frog Antimicrobial Peptide against Pseudomonas aeruginosa Biofilms” (Antibiotics, 2024)
Values after ≈ are worked out from the molar mass of the structure shown.

Key:
[1] = system: E. faecalis NCTC 12697 biofilm; assay type: cell-based, Enterococcus faecalis; conditions: for MBIC: lowest concentration inhibiting at least 90% of biofilm formation; for MBEC: minimum concentration eradicating at least 99% of the biofilm
Source text: (§1) The minimum bactericidal concentration (MBC) is defined as the lowest antibiotic concentration that kills 99.9% of the inoculum. The minimum biofilm inhibitory concentration (MBIC) is the lowest concentration that inhibits at least 90% of the formation of biofilm. The minimum biofilm eradication concentration (MBEC) is the minimum concentration that can eradicate at least 99% of the biofilm. In addition to the eight microorganisms described previously, this experiment was also applied to P. aeruginosa (ATCC 27853, ATCC BAA-2108, P. aeruginosa 01, P. aeruginosa 14).

[2] = system: A. baumannii (BAA 747); experiment: microbe, parasite or virus in culture; assay type: cell-based, Acinetobacter baumannii; conditions: Acinetobacter baumannii, BAA747, planktonic A. baumannii BAA 747; for MIC: 37 °C, nine repeats of three independent experiments, read-out: MIC; for MBC: lowest concentration killing 99.9% of inoculum, read-out: MBC
Source text: (§2) The minimum inhibitory concentration (MIC) is the minimum concentration of an antimicrobial agent that prevents the visible growth of a bacterium or bacteria. The MIC is an important piece of data for research on new antimicrobial agents and helps in the effective selection of antibiotics to improve the success of treatment. The minimum bactericidal concentration (MBC) is defined as the lowest antibiotic concentration that kills 99.9% of the inoculum. This study mainly contained eight different microorganisms, which were Staphylococcus aureus (ATCC 6538), methicillin-resistant Staphylococcus aureus (NCTC 12493), Enterococcus faecalis (NCTC 12697), Escherichia coli (ATCC 8739), Klebsiella pneumoniae (ATCC 43816), Pseudomonas aeruginosa (ATCC CRM 9027), Acinetobacter baumannii (BAA 747), and Candida albicans (ATCC 10231). The bacteria were incubated in the compatible medium at 37 °C overnight.

[3] = system: MRSA (NCTC 12493); experiment: microbe, parasite or virus in culture; assay type: cell-based, methicillin-resistant Staphylococcus aureus; conditions: Staphylococcus aureus, planktonic MRSA NCTC 12493; for MIC: 37 °C, nine repeats of three independent experiments, read-out: MIC; for MBC: lowest concentration killing 99.9% of inoculum, read-out: MBC
Source text: as §2

[4] = system: P. aeruginosa ATCC BAA-2108 biofilm; assay type: cell-based, Pseudomonas aeruginosa; conditions: for MBIC: lowest concentration inhibiting at least 90% of biofilm formation; for MBEC: minimum concentration eradicating at least 99% of the biofilm
Source text: as §1

[5] = system: P. aeruginosa 14 biofilm; assay type: cell-based, Pseudomonas aeruginosa; conditions: for MBIC: lowest concentration inhibiting at least 90% of biofilm formation; for MBEC: minimum concentration eradicating at least 99% of the biofilm
Source text: as §1

[6] = system: P. aeruginosa ATCC 27853 biofilm; assay type: cell-based, Pseudomonas aeruginosa; conditions: for MBIC: lowest concentration inhibiting at least 90% of biofilm formation; for MBEC: minimum concentration eradicating at least 99% of the biofilm
Source text: as §1

[7] = system: P. aeruginosa ATCC CRM 9027 biofilm; assay type: cell-based, Pseudomonas aeruginosa; conditions: for MBIC: lowest concentration inhibiting at least 90% of biofilm formation; for MBEC: minimum concentration eradicating at least 99% of the biofilm
Source text: as §1

[8] = system: P. aeruginosa 01 biofilm; assay type: cell-based, Pseudomonas aeruginosa; conditions: for MBIC: lowest concentration inhibiting at least 90% of biofilm formation; for MBEC: minimum concentration eradicating at least 99% of the biofilm
Source text: as §1

[9] = system: E. faecalis (NCTC 12697); experiment: microbe, parasite or virus in culture; assay type: cell-based, Enterococcus faecalis; conditions: Enterococcus faecalis, NCTC12697, planktonic E. faecalis NCTC 12697; for MIC: 37 °C, nine repeats of three independent experiments, read-out: MIC; for MBC: lowest concentration killing 99.9% of inoculum, read-out: MBC
Source text: as §2

[10] = system: S. aureus ATCC 6538 biofilm; assay type: cell-based, Staphylococcus aureus; conditions: for MBIC: lowest concentration inhibiting at least 90% of biofilm formation; for MBEC: minimum concentration eradicating at least 99% of the biofilm
Source text: as §1

[11] = system: S. aureus (ATCC 6538); experiment: microbe, parasite or virus in culture; assay type: cell-based, Staphylococcus aureus; conditions: Staphylococcus aureus, ATCC6538, planktonic S. aureus ATCC 6538; for MIC: 37 °C, nine repeats of three independent experiments, read-out: MIC; for MBC: lowest concentration killing 99.9% of inoculum, read-out: MBC
Source text: as §2

[12] = system: K. pneumoniae ATCC 43816 biofilm; assay type: cell-based, Klebsiella pneumoniae; conditions: for MBIC: lowest concentration inhibiting at least 90% of biofilm formation; for MBEC: minimum concentration eradicating at least 99% of the biofilm
Source text: as §1

[13] = system: A. baumannii BAA 747 biofilm; assay type: cell-based, Acinetobacter baumannii; conditions: for MBIC: lowest concentration inhibiting at least 90% of biofilm formation; for MBEC: minimum concentration eradicating at least 99% of the biofilm
Source text: as §1

[14] = system: K. pneumoniae (ATCC 43816); experiment: microbe, parasite or virus in culture; assay type: cell-based, Klebsiella pneumoniae; conditions: Klebsiella pneumoniae, ATCC43816, planktonic K. pneumoniae ATCC 43816; for MIC: 37 °C, nine repeats of three independent experiments, read-out: MIC; for MBC: lowest concentration killing 99.9% of inoculum, read-out: MBC
Source text: as §2

[15] = system: MRSA NCTC 12493 biofilm; assay type: cell-based, methicillin-resistant Staphylococcus aureus; conditions: for MBIC: lowest concentration inhibiting at least 90% of biofilm formation; for MBEC: minimum concentration eradicating at least 99% of the biofilm
Source text: as §1

[16] = system: E. coli (ATCC 8739); experiment: microbe, parasite or virus in culture; assay type: cell-based, Escherichia coli; conditions: Escherichia coli, ATCC8739, planktonic E. coli ATCC 8739; for MIC: 37 °C, nine repeats of three independent experiments, read-out: MIC; for MBC: lowest concentration killing 99.9% of inoculum, read-out: MBC
Source text: as §2

[17] = system: P. aeruginosa (ATCC CRM 9027); experiment: microbe, parasite or virus in culture; assay type: cell-based, Pseudomonas aeruginosa; conditions: Pseudomonas aeruginosa, planktonic P. aeruginosa ATCC CRM 9027; for MIC: 37 °C, nine repeats of three independent experiments, read-out: MIC; for MBC: lowest concentration killing 99.9% of inoculum, read-out: MBC
Source text: as §2

MIC [2] [µM] | MIC [3] [µM] | MIC [9] [µM] | SMILES | MBIC [1] | MBEC [1] | MBC [2] [µM] | MBC [3] [µM] | MBIC [4] [µM] | MBEC [4] [µM] | MBIC [5] [µM] | MBEC [5] [µM] | MBIC [6] [µM] | MBEC [6] [µM] | MBIC [7] | MBEC [7] | MBIC [8] [µM] | MBEC [8] [µM] | MBC [9] [µM] | MBIC [10] [µM] | MBEC [10] [µM] | other results
> 128 | 1 (≈ 0.478 µg/mL) | 16 (≈ 7.64 µg/mL) | CNC(C)C1CCC(N)C(OC2C(N)CC(N)C(OC3OCC(C)(O)C(NC)C3O)C2O)O1 (centres unmarked) [Gentamicin, reference compound] | >128/>128 µM | >128/>128 µM | > 128 | 2 (≈ 0.955 µg/mL) | 16 | 128 | 2 | 4 | 4 | > 128 | 2 µM | 4 µM | 4 | 8 | 32 (≈ 15.3 µg/mL) | 8 | 16 | MIC [11]: 2 µM (≈ 0.955 µg/mL); MBC [11]: 2 µM (≈ 0.955 µg/mL); MBIC [12]: 32/32 µM; MBEC [12]: 32/32 µM; MBIC [13]: 8 µM; MBEC [13]: 16 µM; MIC [14]: 1 µM (≈ 0.478 µg/mL); MBC [14]: 1 µM (≈ 0.478 µg/mL); MBIC [15]: 2 µM; MBEC [15]: > 128 µM; MIC [16]: 2 µM (≈ 0.955 µg/mL); MBC [16]: 4 µM (≈ 1.91 µg/mL); MIC [17]: 0.25 µM (≈ 0.119 µg/mL); MBC [17]: 0.5 µM (≈ 0.239 µg/mL)
1 (≈ 0.481 µg/mL) | 16 (≈ 7.69 µg/mL) | 128 (≈ 61.5 µg/mL) | CO/N=C(\C(=O)N[C@@H]1C(=O)N2C(C(=O)[O-])=C(C[N+]3(C)CCCC3)CS[C@H]12)c1csc(N)n1 [Cefepime, reference compound] | >128/>128 µM | >128/>128 µM | 2 (≈ 0.961 µg/mL) | 32 (≈ 15.4 µg/mL) | 64 | > 128 | 8 | > 128 | 2 | 4 | >128/>128 µM | >128/>128 µM | 4 | > 128 | > 128 | 4 | 8 | MIC [11]: 32 µM (≈ 15.4 µg/mL); MBC [11]: 64 µM (≈ 30.8 µg/mL); MBIC [12]: >128/>128 µM; MBEC [12]: >128/>128 µM; MBIC [13]: 128/>128 µM; MBEC [13]: 128/>128 µM; MIC [14]: 128 µM (≈ 61.5 µg/mL); MBC [14]: > 128 µM; MBIC [15]: >128/>128 µM; MBEC [15]: >128/>128 µM; MIC [16]: 8 µM (≈ 3.84 µg/mL); MBC [16]: 16 µM (≈ 7.69 µg/mL); MIC [17]: 2 µM (≈ 0.961 µg/mL); MBC [17]: 2 µM (≈ 0.961 µg/mL)
